Consider 30 molecules from patent publication US11180483B2, “Substituted reverse pyrimidine Bmi-1 inhibitors” (PTC Therapeutics, Inc., priority 2012, dated 2021).

For one series, the system named is Bmi-1. Description: Sandwich ELISA Assay (Bmi-1 ELISA) in HT-1080 cells. In kind it is cell-based. Put shortly:
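Bmi-1 in lysates was measured by a three-antibody ELISA with TMB, OD450 minus OD570 reference, interpolated on a GST-tagged recombinant Bmi-1 standard curve, 0-8000 pg/mL. Lysates came from HT-1080 cells treated 40-48 h with compound, final DMSO 0.5%.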

With `Cc1nc2ccc(F)cc2n1-c1nc(N)cc(Nc2ccc(OC(F)F)c(F)c2)n1` [Cpd 76, N-[4-(difluoromethoxy)-3-fluorophenyl]-2-(6-fluoro-2-methyl-1H-benzimidazol-1-yl)pyrimidine-4,6-diamine], the melting point was 182 to 183 °C. In addition, the EC50 with Bmi-1 was in the range of 10 to 100 nM.
With `CCc1nc2ccc(F)cc2n1-c1nc(N)cc(Nc2ccc(OC(F)F)c(F)c2)n1` [Cpd 77, N-[4-(difluoromethoxy)-3-fluorophenyl]-2-(2-ethyl-6-fluoro-1H-benzimidazol-1-yl)pyrimidine-4,6-diamine], the melting point lay within 156 to 158 °C. In the series on Bmi-1, this molecule showed an EC50 of 10 to 100 nM.
For `Nc1cc(Nc2ccc(OC(F)F)c(F)c2)nc(-n2c(C3CC3)nc3ccc(F)cc32)n1` [Cpd 78, 2-(2-cyclopropyl-6-fluoro-1H-benzimidazol-1-yl)-N-[4-(difluoromethoxy)-3-fluorophenyl]pyrimidine-4,6-diamine], in that order: 186 to 188 °C and 10 to 100 nM.
Taken in the same sequence, the figures for `CCc1nc2ccc(F)cc2n1-c1nc(N)cc(Nc2ccc(C(F)(F)F)cc2)n1` [Cpd 81, 2-(2-ethyl-6-fluoro-1H-benzimidazol-1-yl)-N-[4-(trifluoromethyl)phenyl]pyrimidine-4,6-diamine] were 201 to 203 °C and 10 to 100 nM.
For `Cc1nc2ncc(F)cn2c1-c1nc(N)cc(Nc2ccc(C(F)(F)F)cc2)n1` [Cpd 100, 2-(6-fluoro-2-methylimidazo[1,2-a]pyrimidin-3-yl)-N-[4-(trifluoromethyl)phenyl]pyrimidine-4,6-diamine], in that order: 256 to 258 °C and 100 to 3000 nM.
As for `Nc1cc(Nc2ccc(OC(F)F)cc2)nc(-n2c(C3CC3)nc3ccc(F)cc32)n1` [Cpd 143, 2-(2-cyclopropyl-6-fluoro-1H-benzimidazol-1-yl)-N-[4-(difluoromethoxy)phenyl]pyrimidine-4,6-diamine], the melting point was in the range of 175 to 177 °C. The molecule also showed an EC50 in the series with Bmi-1 of 1 to 10 nM.
Taken in the same sequence, the figures for `CCc1nc2ccc(F)cc2n1-c1nc(N)cc(Nc2ccc(OC(F)F)cc2)n1` [Cpd 144, N-[4-(difluoromethoxy)phenyl]-2-(2-ethyl-6-fluoro-1H-benzimidazol-1-yl)pyrimidine-4,6-diamine] were 166 to 168 °C and 10 to 100 nM.
For `Nc1cc(Nc2ccc(OC(F)F)cc2)nc(-n2c(C(F)F)nc3ccc(F)cc32)n1` [Cpd 145, N-[4-(difluoromethoxy)phenyl]-2-[2-(difluoromethyl)-6-fluoro-1H-benzimidazol-1-yl]pyrimidine-4,6-diamine], in that order: 114 to 115 °C and 1 to 10 nM.
Taken in the same sequence, the figures for `Nc1cc(Nc2ccc(C(F)(F)F)cc2)nc(-n2c(C3CC3)nc3ccccc32)n1` [Cpd 149, 2-(2-cyclopropyl-1H-benzimidazol-1-yl)-N-[4-(trifluoromethyl)phenyl]pyrimidine-4,6-diamine] were 199 to 201 °C and 10 to 100 nM.
For `COCc1nc2ccccc2n1-c1nc(N)cc(Nc2ccc(C(F)(F)F)cc2)n1` [Cpd 150, 2-[2-(methoxymethyl)-1H-benzimidazol-1-yl]-N-[4-(trifluoromethyl]phenyl]pyrimidine-4,6-diamine], the melting point fell in the range of 212 to 213 °C. The EC50 in the series with Bmi-1 lay in the range of 10 to 100 nM.
Taken in the same sequence, the figures for `CC(C)c1nc2ccccc2n1-c1nc(N)cc(Nc2ccc(C(F)(F)F)cc2)n1` [Cpd 151, 2-[2-(propan-2-yl)-1H-benzimidazol-1-yl]-N-[4-(trifluoromethyl]phenyl]pyrimidine-4,6-diamine] were 216 to 218 °C and 10 to 100 nM.
Molecule `Nc1cc(Nc2ccc(C(F)(F)F)cc2)nc(-n2c(C(F)F)nc3ccccc32)n1` [Cpd 152, 2-[2-(difluoromethyl)-1H-benzimidazol-1-yl]-N-[4-(trifluoromethyl)phenyl]pyrimidine-4,6-diamine] registered a melting point of 187 to 188 °C. For the same molecule, in the series with Bmi-1, the EC50 was 10 to 100 nM.
For the molecule `CCc1nc2ccccc2n1-c1nc(N)cc(Nc2ccc(C(F)(F)F)cc2)n1` [Cpd 153, 2-(2-ethyl-1H-benzimidazol-1-yl)-N-[4-(trifluoromethyl]phenyl]pyrimidine-4,6-diamine], the melting point was in the range of 183 to 185 °C. In addition, in the series with Bmi-1, the EC50 is 10 to 100 nM.
Taken in the same sequence, the figures for `Cc1cn2c(-c3nc(N)c(F)c(Nc4ccc(C(F)(F)F)cc4)n3)c(C)nc2c(C)n1` [Cpd 174, 5-fluoro-N-[4-(trifluoromethyl)phenyl]-2-(2,6,8-trimethylimidazo[1,2-a]pyrazin-3-yl)pyrimidine-4,6-diamine] were 166 to 168 °C and 100 to 3000 nM.
For `Cc1cn2c(-c3nc(N)c(F)c(Nc4ccc(OC(F)F)cc4)n3)c(C)nc2c(C)n1` [Cpd 175, N-[4-(difluoromethoxy)phenyl]-5-fluoro-2-(2,6,8-trimethylimidazo[1,2-a]pyrazin-3-yl)pyrimidine-4,6-diamine], in that order: 141 to 143 °C and 100 to 3000 nM.
Taken in the same sequence, the figures for `Cc1cn2c(-c3nc(N)c(F)c(Nc4ccc(OC(F)F)c(F)c4)n3)c(C)nc2c(C)n1` [Cpd 176, N-[4-(difluoromethoxy)-3-fluorophenyl]-5-fluoro-2-(2,6,8-trimethylimidazo[1,2-a]pyrazin-3-yl)pyrimidine-4,6-diamine] were 140 to 141 °C and 100 to 3000 nM.
In turn, `CCc1nn2ccc(F)cc2c1-c1nc(N)c(F)c(Nc2ccc(OC(F)F)cc2)n1` [Cpd 186, N-[4-(difluoromethoxy)phenyl]-2-(2-ethyl-5-fluoropyrazolo[1,5-a]pyridin-3-yl)-5-fluoropyrimidine-4,6-diamine] displayed a melting point of 103 to 105 °C. The same molecule registered an EC50 in the series on Bmi-1 of 100 to 3000 nM.
Taken in the same sequence, the figures for `CCc1nn2ccc(F)cc2c1-c1nc(N)c(F)c(Nc2ccc(C(F)(F)F)cc2)n1` [Cpd 187, 2-(2-ethyl-5-fluoropyrazolo[1,5-a]pyridin-3-yl)-5-fluoro-N-[4-(trifluoromethyl)phenyl]pyrimidine-4,6-diamine] were 164 to 166 °C and 100 to 3000 nM.
For `CCc1nn2ccc(F)cc2c1-c1nc(N)c(F)c(Nc2ccc(OC(F)F)c(F)c2)n1` [Cpd 188, N-[4-(difluoromethoxy)-3-fluorophenyl]-2-(2-ethyl-5-fluoropyrazolo[1,5-a]pyridin-3-yl)-5-fluoropyrimidine-4,6-diamine], in that order: 150 to 152 °C and 100 to 3000 nM.
For `Cc1nc2ccccc2n1-c1nc(N)cc(Nc2ccc3c(c2)OCO3)n1` [Cpd 205, N-(1,3-benzodioxol-5-yl)-2-(2-methyl-1H-benzimidazol-1-yl)pyrimidine-4,6-diamine], in that order: 166 to 167 °C and 1 to 10 nM.
In the case of `Cc1nc2ccccc2n1-c1nc(N)cc(Nc2ccc3c(c2)OC(F)(F)O3)n1` [Cpd 206, N-(2,2-difluoro-1,3-benzodioxol-5-yl)-2-(2-methyl-1H-benzimidazol-1-yl)pyrimidine-4,6-diamine], the melting point is 141 to 142 °C. In the series with Bmi-1, this molecule returned an EC50 of 10 to 100 nM.
Taken in the same sequence, the figures for `COc1ccc(Nc2cc(N)nc(-n3c(C)nc4ccccc43)n2)cc1F` [Cpd 207, N-(3-fluoro-4-methoxyphenyl)-2-(2-methyl-1H-benzimidazol-1-yl)pyrimidine-4,6-diamine] were 233 to 234 °C and 1 to 10 nM.
As for `COc1ccc(Nc2cc(N)nc(-n3c(C)nc4ccccc43)n2)cn1` [Cpd 208, N-(6-methoxypyridin-3-yl)-2-(2-methyl-1H-benzimidazol-1-yl)pyrimidine-4,6-diamine], the melting point was in the range of 118 to 119 °C. Moreover, the EC50 in the series on Bmi-1 lay within 1 to 10 nM.
Taken in the same sequence, the figures for `Cc1nc2ccc(F)cn2c1-c1nc(N)c(F)c(Nc2ccc(Cl)cc2)n1` [Cpd 251, N-(4-chlorophenyl)-5-fluoro-2-(6-fluoro-2-methylimidazo[1,2-a]pyridin-3-yl)pyrimidine-4,6-diamine] were 226 to 229 °C and 100 to 3000 nM.
Taken in the same sequence, the figures for `COc1ccc(Nc2nc(-c3c(C)nc4ccc(F)cn34)nc(N)c2F)cc1` [Cpd 252, 5-fluoro-2-(6-fluoro-2-methylimidazo[1,2-a]pyridin-3-yl)-N-(4-methoxyphenyl)pyrimidine-4,6-diamine] were 204 to 206 °C and 10 to 100 nM.
Taken in the same sequence, the figures for `Cc1ccc(Nc2nc(-c3c(C)nc4ccc(F)cn34)nc(N)c2F)cc1` [Cpd 253, 5-fluoro-2-(6-fluoro-2-methylimidazo[1,2-a]pyridin-3-yl)-N-(4-methylphenyl)pyrimidine-4,6-diamine] were 210 to 212 °C and 1 to 10 nM.
`Cc1nc2ccc(F)cc2n1-c1nc(N)cc(Nc2ccc(Cl)cc2)n1` [Cpd 263, N-(4-chlorophenyl)-2-(6-fluoro-2-methyl-1H-benzimidazol-1-yl)pyrimidine-4,6-diamine]: the melting point lay within 183 to 185 °C. In the series with Bmi-1, this molecule gave an EC50 of 10 to 100 nM.
Taken in the same sequence, the figures for `Cc1nc2ccc(F)cc2n1-c1nc(N)cc(Nc2ccc(N(C)C)cc2)n1` [Cpd 266, N-[4-(dimethylamino)phenyl]-2-(6-fluoro-2-methyl-1H-benzimidazol-1-yl)pyrimidine-4,6-diamine] were 122 to 125 °C and 10 to 100 nM.
`Cc1nc2ccc(F)cc2n1-c1nc(N)cc(Nc2ccc(Cl)c(F)c2)n1` [Cpd 267, N-(4-chloro-3-fluorophenyl)-2-(6-fluoro-2-methyl-1H-benzimidazol-1-yl)pyrimidine-4,6-diamine] gave a melting point of 225 to 227 °C. Moreover, the EC50 with Bmi-1 was 100 to 3000 nM.
For `Cc1cccc(Nc2cc(N)nc(-n3c(C)nc4ccc(F)cc43)n2)c1` [Cpd 268, 2-(6-fluoro-2-methyl-1H-benzimidazol-1-yl)-N-(3-methylphenyl)pyrimidine-4,6-diamine], in that order: 203 to 205 °C and 100 to 3000 nM.
